Marks after values point to notes of the source that are not given here.
Experiments:
[1] = tested on: influenza virus A/Puerto Rico/8/34 (H1N1); test: Antiviral (cytoprotective) activity in MDCK cells, MTT; format: cell-based; settings: H1N1; infected MDCK cells, m.o.i. 0.01, 48 h, 50% cell protection; read-out: IC50
DU145 [2] = test: Initial cytotoxicity testing (MTT test), DU145; format: cell-based, human; settings: for cytotoxicity DU145: human cancer cell line, MTT, 72 h, two concentrations 50–100 µM; for IC50: Homo sapiens, DU-145, 72 h, read-out: cytotoxicity DU145
Method: (§1) Colon cancer (HCT116, HT29), breast cancer (MCF7, SKBR3), melanoma (SK-MEL28), lung cancer (A549), prostate cancer (DU145), human normal cells (VA-13 and HEK293), and murine mammary cell lines (EMT6) were purchased from ATCC (Manassas, VA, USA). Cells were routinely grown in RPMI 1640 culture medium, supplemented with 10% fetal bovine serum, glutamine, and 100 U/mL penicillin. HCT116, HT29, MCF7, SKBR3, SK-MEL28, A549, DU145, VA-13, HEK293, and EMT6 cells were grown in flasks in RPMI 1640 fresh culture medium with supplements at 37 °C and 5% CO2. Cells were grown as monolayer cultures, and the cells in the exponential growth phase were trypsinized and suspended in the supplemented RPMI 1640 medium.
(§2) To evaluate the cytotoxicity of the compounds, we placed cells in (20–30) × 10^3 cells/mL concentrations in 96-well culture plates for 24 h. Cells were counted after treatment with Trypan blue solution (0.4%). They were then exposed to two different concentrations of compounds 16–30 (50–100 µM) dilutions in pre-incubated cells at 37 °C for 72 h. In control wells with untreated cells, only (DMSO + PBS) was added. Cell viability was measured by the standard MTT test. The stock solutions of each compound were prepared in DMSO following by preparation of serial dilutions in PBS.
(§3) The absorbance was measured at 540 nm using a Multiskan™ FC microplate photometer and the Skanlt software 6.1 RE for microplate reader, both from Thermo Scientific (Waltham, MA, USA). Experiments were carried out in triplicate; to perform the statistical analysis, more concentrations should be evaluated.

A549 [3] = test: Initial cytotoxicity testing (MTT test), A549; format: cell-based, human; settings: for cytotoxicity A549: human cancer cell line, MTT, 72 h, two concentrations 50–100 µM; for IC50: Homo sapiens, A549, 72 h, read-out: cytotoxicity A549
Method: as §1, §2, §3

VA-13 = test: Initial cytotoxicity testing (MTT test), VA-13; format: cell-based, human; settings: human healthy cells, MTT, 72 h, two concentrations 50–100 µM
Method: as §1, §2, §3

HEK293 = test: Initial cytotoxicity testing (MTT test), HEK293; format: cell-based, human; settings: human healthy cells, MTT, 72 h, two concentrations 50–100 µM
Method: as §1, §2, §3

EMT6 = test: Initial cytotoxicity testing (MTT test), EMT6; format: cell-based, murine; settings: for cytotoxicity EMT6: murine mammary cell line, MTT, 72 h, two concentrations 50–100 µM
Method: as §1, §2, §3

[4] = tested on: DU145, A549, VA-13, HEK293, EMT6; test: Initial cytotoxicity testing (MTT test), all cell lines together; format: cell-based
Method: as §1, §2, §3

HCT116 = test: IC50 determination (MTT test), HCT116; format: cell-based, human; settings: 72 h; for IC50: Homo sapiens, HCT-116, colon cancer; for IC50 HCT116: colon cancer
Method: as §1
(§4) To evaluate the cytotoxicity of the SDE-series in vitro, we placed cells in (15–30) × 10^3 cells/mL concentrations in 96-well culture plates for 24 h. Cells were counted after treatment with Trypan blue solution (0.4%). After 24 h, the cells were exposed to six tested concentrations of SDE-series (50–1.5 µM) dilutions to pre-incubated cells at 37 °C for 72 h. In control wells with untreated cells, only (DMSO + PBS) was added. Cell viability was measured by the standard MTT test. The absorbance was measured at 540 nm using a Multiskan™ FC microplate photometer and the Skanlt software 6.1 RE for microplate reader, both from Thermo Scientific (Waltham, MA, USA). In vitro experiments were carried out in triplicate. GraphPad prism version 9.0 was used to determine the IC50. The IC50 data are presented as mean (±) standard deviation (SD).

HT-29 = test: IC50 determination (MTT test), HT-29; format: cell-based; settings: Homo sapiens, colon cancer, 72 h
Method: as §1, §4

MCF7 = test: IC50 determination (MTT test), MCF7; format: cell-based; settings: Homo sapiens, breast cancer, 72 h
Method: as §1, §4

SKBR3 = test: IC50 determination (MTT test), SKBR3; format: cell-based; settings: Homo sapiens, SK-BR-3, breast cancer, 72 h
Method: as §1, §4

SK-MEL-28 = test: IC50 determination (MTT test), SK-MEL-28; format: cell-based, human; settings: 72 h; for IC50: Homo sapiens, SK-MEL-28, melanoma; for IC50 SK-MEL-28: melanoma
Method: as §1, §4

A549 [5] = test: IC50 determination (MTT test), A549; format: cell-based; settings: Homo sapiens, lung cancer, 72 h
Method: as §1, §4

DU145 [6] = test: IC50 determination (MTT test), DU145; format: cell-based; settings: Homo sapiens, DU-145, prostate cancer, 72 h
Method: as §1, §4

HEK-293 = test: IC50 determination (MTT test), HEK-293; format: cell-based; settings: Homo sapiens, HEK293, normal cells, 72 h
Method: as §1, §4

in vitro = settings: dog
[7] = tested on: a variety of cancer cell lines; test: IC50 determination (MTT test), variety of cancer cell lines; format: cell-based; settings: Homo sapiens, 72 h, read-out: IC50 range on a variety of cancer cell lines
Method: as §1
as §4, with “In vitro experiments were carried out in triplicate. GraphPad prism version 9.0 was used to determine the IC50. The IC50 data are presented as mean (±) standard deviation (SD).” left out

[8] = Initial cytotoxicity testing (MTT test), VA-13; format: cell-based, human; settings: human healthy cells, MTT, 72 h, two concentrations 50–100 µM
Method: as §1, §2, §3

[9] = Initial cytotoxicity testing (MTT test), HEK293; format: cell-based, human; settings: human healthy cells, MTT, 72 h, two concentrations 50–100 µM
Method: as §1, §2, §3

[10] = tested on: influenza virus A/Puerto Rico/8/34 (H1N1); test: Time-of-addition experiment in MDCK cells; format: cell-based; settings: m.o.i. 10, addition from -2 h to 6 hpi

SMILES	IC50 [1] [µM]	cytotoxicity DU145 (DU145 [2])	cytotoxicity A549 (A549 [3])	cytotoxicity VA-13 (VA-13)	cytotoxicity HEK293 (HEK293)	cytotoxicity EMT6 (EMT6)	toxicity to all cells [4]	IC50 (HCT116) [µM]	IC50 (HT-29) [µM]	IC50 (MCF7) [µM]	IC50 (SKBR3) [µM]	IC50 (SK-MEL-28) [µM]	IC50 (A549 [5]) [µM]	IC50 (DU145 [6]) [µM]	IC50 (HEK-293) [µM]	CC50 at 48 h (in vitro) [µM]	IC50 (DU145 [2]) [µM]	IC50 (A549 [3]) [µM]	IC50 at 72 h [8] [µM]	IC50 at 72 h [9] [µM]	further results
COc1ccc(C2=NO[C@]3(CC/C=C(\C)CC[C@@H]4[C@@H]3CC4(C)C)C2)cc1 [Compound 17a, (1S,2R,9R,E)-3′-(4-Methoxyphenyl)-6,10,10-trimethyl-4′H-spiro[bicyclo [7.2.0]undecane-2,5′-isoxazol]-5-ene]	8.03 ± 1.1	+ *	+ *	+ *	+ *	+ *	extremely toxic, killing all cells within 48 h	39.4 ± 2.8	47.1 ± 3	> 50	36.5 ± 3.2	38.9 ± 3.9	30.7 ± 2.1	42.6 ± 3.4	44.3 ± 4.1	37 ± 2.2	–	–	–	–	–
CC1=CCCC2(CC(C)=NN2c2ccccc2)C2CC(C)(C)C2CC1 [Compound 21a, (1S,2R,9R,E)-5′,6,10,10-Tetramethyl-2′-phenyl-2′,4′-dihydrospiro[bicyclo [7.2.0]undecane-2,3′-pyrazol]-5-ene]	6.25 ± 0.7	+ *	+ *	+ *	+ *	+ *	extremely toxic, killing all cells within 48 h	22.4 ± 0.8	39.4 ± 2.1	> 50	12.3 ± 1	24.9 ± 1.3	21.2 ± 0.9	18.8 ± 0.4	14.2 ± 0.9	28 ± 1.9	–	–	–	–	IC50 [7]: 12.3 to 39.4 µM
COc1cccc(OC)c1C1=NN(c2c(Cl)cc(Cl)cc2Cl)[C@]2(CC/C=C(\C)CC[C@@H]3[C@@H]2CC3(C)C)C1 [Compound 23a, (1S,2R,9R,E)-5′-(2,6-Dimethoxyphenyl)-6,10,10-trimethyl-2′-(2,4,6-trichlorophenyl)-2′,4′-dihydrospiro[bicyclo [7.2.0]undecane-2,3′-pyrazol]-5-ene]	> 5.59	–	–	–	–	+ *	–	> 50	45 ± 1.9	> 50	> 50	> 50	33.4 ± 2.2	28.8 ± 1.2	39.2 ± 3	10.2 ± 0.8	< 50	< 50	< 50	< 50	toxicity against EMT6 (EMT6; initial testing): extremely toxic; IC50 ([4]; after 72 h, read-out: IC50 on all cells): < 50 µM; IC50 HCT116 (HCT116): did not show any cytotoxic effects; IC50 SK-MEL-28 (SK-MEL-28): did not show any cytotoxic effects
CC1(C)C[C@H]2[C@H]1CC[C@]1(C)ON=C(c3ccc(Cl)cc3)[C@H]1CC[C@@]21CC(c2ccc(Cl)cc2)=NO1 [Compound 25, (3aR,6R,6aS,8aR,10aS)-3,3′-Bis(4-chlorophenyl)-8,8,10a-trimethyl-3a,4,5,6a,7,8,8a,9,10,10a-decahydro-4′H-spiro[cyclobuta [5,6]cyclonona [1,2-d]isoxazole-6,5′-isoxazole]]	34.1 ± 4.4	–	–	–	–	–	–	> 50	> 50	> 50	> 50	> 50	> 50	> 50	> 50	426 ± 26.9	50 to 100	50 to 100	> 50	> 50	latest time of addition with virus-inhibiting activity [10]: ≤ 6 hpi; toxicity to DU145 (DU145 [2]; initial testing): harmful; toxicity to A549 (A549 [3]; initial testing): harmful; IC50 HCT116 (HCT116): did not show any cytotoxic effects; IC50 SK-MEL-28 (SK-MEL-28): did not show any cytotoxic effects
